In patent publication US20240409585A1, “MACROCYCLIC IMMUNOMODULATORS” (priority 2021, published 2024):
Numbered stars: 1 amine (or outer) side, 2 acyl side, 3 side chain; on linkers, the order of the positions; unused ones are H or OH. Bridge positions count the residues as written; N and C are the ends. Square brackets hold non-standard residues; d marks the D form. Peptide text beside a SMILES is read from it. * marks the point of attachment. ξ: configuration not given here. Ala(Nα-(CH2)3NH) = C[C@@H](C(=O)[*:2])N(CCCN[*:3])[*:1]; Phe(4-COOH) = N[C@@H](Cc1ccc(C(=O)O)cc1)C(=O)O; Bip = N[C@@H](Cc1ccc(-c2ccccc2)cc1)C(=O)O; Phe(3-Me) = Cc1cccc(C[C@H](N)C(=O)O)c1; Val(3-OH) = CC(C)(O)[C@H](N)C(=O)O; 4Pal = N[C@@H](Cc1ccncc1)C(=O)O; 2Thi = N[C@@H](Cc1cccs1)C(=O)O; Cha = N[C@@H](CC1CCCCC1)C(=O)O; Cit = NC(=O)NCCC[C@H](N)C(=O)O; Thr(3ξ) = CC(O)[C@H](N)C(=O)O; Carboxymethyl = O=C(O)C*; NMeA = CN[C@@H](C)C(=O)O; Dab = NCC[C@H](N)C(=O)O; Dap = NC[C@H](N)C(=O)O

These molecules were tested against T1, PE-labeled human PD-L1-Ig binding to Jurkat cell line over-expressing human PD-1 (Jurkat-PD-1) (Homo sapiens, UniProt Q15116) (assay: Jurkat-PD-1 Cell Binding High-Content Screening Assay (CBA): Method 1). Details: Jurkat HPDL1 PD1 IC50 (uM) (Method 1), Jurkat-hPD-1 cells, PE-labeled PD-L1-Ig 20 nM final.
T1 construct: expressed in transfected cells; host or cells: Jurkat
T1 sequence (Q15116 25-288): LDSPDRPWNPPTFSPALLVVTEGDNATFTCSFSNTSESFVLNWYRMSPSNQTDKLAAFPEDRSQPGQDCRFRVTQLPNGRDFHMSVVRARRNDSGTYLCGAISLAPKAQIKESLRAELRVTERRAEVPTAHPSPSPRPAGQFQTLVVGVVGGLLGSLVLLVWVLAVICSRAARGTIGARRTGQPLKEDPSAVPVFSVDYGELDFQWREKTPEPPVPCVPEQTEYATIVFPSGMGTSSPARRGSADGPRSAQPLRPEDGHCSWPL
In the case of `C=C1N[C@@H](Cc2ccccc2)C(=O)N(C)[C@@H](C)C(=O)N[C@H](CC(C)C)C(=O)N[C@@H](CC(N)=O)C(=O)N[C@@H](CC(C)C)C(=O)N[C@@H](Cc2ccccc2)C(=O)N[C@@H](CO)C(=O)N[C@H](C(=O)N[C@@H](C)C(N)=O)CSCC(=O)N[C@@H](Cc2ccc(OCC(=O)O)cc2)C(=O)N[C@@H](Cc2ccc(C(=O)O)cc2)C(=O)N[C@@H](CC(=O)O)C(=O)N[C@@H](Cc2cccc(C)c2)C(=O)N[C@@H](CC(C)C)C(=O)N[C@H]1Cc1ccc(-c2ccccc2)cc1` [Compound 1585], the IC50 is reported as 0.73 µM.

Same assay, conditions: Jurkat-hPD-1 cells, PE-labeled PD-L1-Ig 20 nM final; read-out: Jurkat HPDL1 PD1 IC50 (uM) (Method 1)
`CC(C)C[C@@H]1NC(=O)[C@H](Cc2c[nH]c3ccccc23)NC(=O)[C@H](CC(=O)O)NC(=O)[C@H](Cc2ccc(C(=O)O)cc2)NC(=O)[C@H](Cc2ccccc2)NC(=O)CSC[C@@H](C(=O)N[C@@H](C)C(N)=O)NC(=O)[C@H](CO)NC(=O)[C@H](C(C)C)NC(=O)[C@H](CC(C)C)NC(=O)[C@H](CCCCN)NC(=O)[C@@H](C)NC(=O)[C@H](C)N(C)C(=O)[C@H](CCC(=O)O)NC(=O)[C@H](Cc2ccc(-c3ccccc3)cc2)NC1=O` [Compound 1746] ({CH2CO}-F[Phe(4-COOH)]DWL[Bip]E[NMeA][dA]KLVSCA-NH2; thioether N-14) was tested, and the IC50 was 0.02 µM.
With `CC(C)C[C@@H]1NC(=O)[C@H](CCCNC(=N)N)NC(=O)[C@@H](Cc2ccccc2)NC(=O)[C@H](C)N(C)C(=O)[C@H](CCCNC(=N)N)NC(=O)[C@H](Cc2ccc(-c3ccccc3)cc2)NC(=O)[C@H](C(C)C)NC(=O)[C@H](Cc2c[nH]c3ccccc23)NC(=O)[C@H](CC(=O)O)NC(=O)[C@H](Cc2ccncc2)NC(=O)[C@H](CC(N)=O)NC(=O)CSC[C@@H](C(=O)N[C@@H](C)C(N)=O)NC(=O)[C@H]([C@@H](C)O)NC(=O)[C@H](C(C)C)NC1=O` [Compound 1162] ({CH2CO}-N[4Pal]DWV[Bip]R[NMeA][dF]RLVTCA-NH2; thioether N-14) the IC50 was 0.22 µM.
Molecule `CC(C)C[C@@H]1NC(=O)[C@H](CCN)NC(=O)[C@@H](CC(C)C)NC(=O)[C@H](C)N(C)C(=O)[C@H](CCCNC(=N)N)NC(=O)[C@H](Cc2ccc(-c3ccccc3)cc2)NC(=O)[C@H](C(C)C)NC(=O)[C@H](Cc2c[nH]c3ccccc23)NC(=O)[C@H](CC(=O)O)NC(=O)[C@H](Cc2ccc(O)cc2)NC(=O)[C@H](Cc2ccccc2)NC(=O)CSC[C@@H](C(=O)N[C@@H](CCC(=O)O)C(N)=O)NC(=O)[C@H]([C@@H](C)O)NC(=O)[C@H](C(C)C)NC1=O` [Compound 1175] ({CH2CO}-FYDWV[Bip]R[NMeA][dL][Dab]LVTCE-NH2; thioether N-14) has an IC50 of 0.12 µM.
In the case of `Cc1cccc(C[C@@H]2NC(=O)[C@H](CC(=O)O)NC(=O)[C@H](Cc3ccc(OCC(=O)O)cc3)NC(=O)[C@H](Cc3ccncc3)NC(=O)CSC[C@@H](C(=O)N[C@H](C)C(N)=O)NC(=O)[C@H](CO)NC(=O)[C@H](C(C)(C)O)NC(=O)[C@H](CC3CCCCC3)NC(=O)[C@H](CCN)NC(=O)[C@@H](CC(C)C)NC(=O)[C@H](C)N(C)C(=O)[C@H](Cc3ccc(OCC(=O)O)cc3)NC(=O)[C@H](Cc3ccc(-c4ccccc4)cc3)NC(=O)[C@H](Cc3ccc(C(=O)O)cc3)NC2=O)c1` [Compound 2183] ({CH2CO}-[4Pal]Y(Carboxymethyl)D[Phe(3-Me)][Phe(4-COOH)][Bip]Y(Carboxymethyl)[NMeA][dL][Dab][Cha][Val(3-OH)]SC[dA]-NH2; thioether N-14), the IC50 is reported as 0.11 µM.
`Cc1cccc(C[C@@H]2NC(=O)[C@H](CC(=O)O)NC(=O)[C@H](Cc3ccc(OCC(=O)O)cc3)NC(=O)[C@H](C(C)O)NC(=O)CSC[C@@H](C(=O)N[C@@H](CO)C(=O)O)NC(=O)[C@H](C(C)O)NC(=O)[C@H](C(C)C)NC(=O)[C@H](CC3CCCCC3)NC(=O)[C@H](CCN)NC(=O)[C@@H](CC(C)C)NC(=O)[C@H](C)N(C)C(=O)[C@H](Cc3ccc(OCC(=O)O)cc3)NC(=O)[C@H](Cc3ccc(-c4ccccc4)cc3)NC(=O)[C@H](Cc3ccc(C(=O)O)cc3)NC2=O)c1` (stereo partly drawn) [Compound 2231] ({CH2CO}-[Thr(3ξ)]Y(Carboxymethyl)D[Phe(3-Me)][Phe(4-COOH)][Bip]Y(Carboxymethyl)[NMeA][dL][Dab][Cha]V[Thr(3ξ)]CS-OH; thioether N-14) showed an IC50 of 0.02 µM.
Molecule `CC(C)C[C@@H]1NC(=O)[C@H](CCN)NC(=O)[C@@H](CC(C)C)NC(=O)[C@H](C)N(CCCN)C(=O)[C@H](CCCNC(=N)N)NC(=O)[C@H](Cc2ccc(-c3ccccc3)cc2)NC(=O)[C@H](C(C)C)NC(=O)[C@H](Cc2c[nH]c3ccccc23)NC(=O)[C@H](CC(=O)O)NC(=O)[C@H](Cc2ccc(O)cc2)NC(=O)[C@H](CC(N)=O)NC(=O)CSC[C@@H](C(=O)N[C@@H](C)C(N)=O)NC(=O)[C@H]([C@@H](C)O)NC(=O)[C@H](C(C)C)NC1=O` [Compound 1209] ({CH2CO}-NYDWV[Bip]R[Ala(Nα-(CH2)3NH)][dL][Dab]LVTCA-NH2; thioether N-14) has an IC50 of 0.14 µM.
`CC[C@H](C)[C@@H]1NC(=O)[C@H](Cc2ccc(-c3ccccc3)cc2)NC(=O)[C@H](C(C)C)NC(=O)[C@H](Cc2c[nH]c3ccccc23)NC(=O)[C@H](CC(=O)O)NC(=O)[C@H](Cc2ccc(OCC(=O)O)cc2)NC(=O)[C@H](CC(N)=O)NC(=O)CSC[C@@H](C(=O)N[C@@H](C)C(N)=O)NC(=O)[C@H]([C@@H](C)O)NC(=O)[C@H](C(C)C)NC(=O)[C@H](CC(C)C)NC(=O)[C@H](CCN)NC(=O)[C@@H](CC(C)C)NC(=O)[C@H](C)N(C)C1=O` [Compound 1396] ({CH2CO}-NY(Carboxymethyl)DWV[Bip]I[NMeA][dL][Dab]LVTCA-NH2; thioether N-14) was tested, and the IC50 was 0.01 µM.
`Cc1cccc(C[C@@H]2NC(=O)[C@H](CC(=O)O)NC(=O)[C@H](Cc3ccc(OCC(=O)O)cc3)NC(=O)[C@H](Cc3cccs3)NC(=O)CSC[C@@H](C(=O)N[C@@H](CN)C(N)=O)NC(=O)[C@H](C(C)O)NC(=O)[C@H](C(C)(C)O)NC(=O)[C@H](CC3CCCCC3)NC(=O)[C@H](CCN)NC(=O)[C@@H](CC(C)C)NC(=O)[C@H](C)N(C)C(=O)[C@H](CCCNC(N)=O)NC(=O)[C@H](Cc3ccc(-c4ccccc4)cc3)NC(=O)[C@H](Cc3ccc(OCC(=O)O)cc3)NC2=O)c1` (stereo partly drawn) [Compound 2169] ({CH2CO}-[2Thi]Y(Carboxymethyl)D[Phe(3-Me)]Y(Carboxymethyl)[Bip][Cit][NMeA][dL][Dab][Cha][Val(3-OH)][Thr(3ξ)]C[Dap]-NH2; thioether N-14) gave an IC50 of 0.01 µM.
For `CC(C)C[C@@H]1NC(=O)[C@H](CCN)NC(=O)[C@@H](CC(C)C)NC(=O)[C@H]2CCCN2C(=O)[C@H](C(C)C)NC(=O)[C@H](Cc2ccc(-c3ccccc3)cc2)NC(=O)[C@H](C(C)C)NC(=O)[C@H](Cc2c[nH]c3ccccc23)NC(=O)[C@H](CC(=O)O)NC(=O)[C@H](Cc2ccc(O)cc2)NC(=O)[C@H](CC(N)=O)NC(=O)CSC[C@@H](C(=O)N[C@@H](C)C(N)=O)NC(=O)[C@H]([C@@H](C)O)NC(=O)[C@H](C(C)C)NC1=O` [Compound 1279] ({CH2CO}-NYDWV[Bip]V[dP][dL][Dab]LVTCA-NH2; thioether N-14), the IC50 was 0.02 µM.
In the case of `CC[C@H](C)[C@@H]1NC(=O)[C@H](Cc2ccc(-c3ccccc3)cc2)NC(=O)[C@H](C(C)(C)O)NC(=O)[C@H](Cc2cccc(C)c2)NC(=O)[C@H](CC(=O)O)NC(=O)[C@H](Cc2ccc(O)cc2)NC(=O)[C@H](CC(N)=O)NC(=O)CSC[C@@H](C(=O)N[C@H](C)C(N)=O)NC(=O)[C@H]([C@@H](C)O)NC(=O)[C@H](C(C)C)NC(=O)[C@H](CC2CCCCC2)NC(=O)[C@H](CCN)NC(=O)[C@@H](CC(C)C)NC(=O)[C@H](C)N(C)C1=O` [Compound 1692] ({CH2CO}-NYD[Phe(3-Me)][Val(3-OH)][Bip]I[NMeA][dL][Dab][Cha]VTC[dA]-NH2; thioether N-14), the IC50 is reported as 0.08 µM.
